According to US20260159525A1, “TRICYCLIC HETEROCYCLES” (Merck Patent GmbH, priority 2021, published 2026):

Tested on: YAP-TEAD interaction
Assay: SK-HEP-1 reporter assay (8x TEAD responsive elements driving NanoLuc luciferase)
Format: cell-based
Details: Homo sapiens, SK-HEP1, SK-HEP-1 cells, 24 hour incubation
Protocol: To identify inhibitors of YAP-TEAD interaction, 8× TEAD responsive elements driving the NanoLuc® luciferase gene were stably integrated into SK-HEP-1 cells (ECACC #: 91091816).
For the assay, cells were treated in duplicates with the test compounds in a 10-point dose, with the top concentration starting at 30 μM (final concentration in assay). After a 24 hour incubation at 37° C., 95% rH, and 5% CO2, a luciferase substrate/lysis reagent mix (NanoGlo™, Promega) was added to the cells, allowing the quantification of cellular luciferase activity.
Cell Media: The cells were cultured in the following media: MEM, +10% FBS, +1× GlutaMAX, +1 mM Sodium-Pyruvate, +100 μM Non-essential amino acids, +0.1 mg/ml Hygromycin. The media used for the assay was: MEM (w/o Phenol Red), +10% FBS, +1× GlutaMAX, +1 mM Sodium-Pyruvate, +100 μM Non-essential amino acids, +0.5% Pen/Strep
Reagents: The reagents used are listed below:
Cell culture: The cells were examined using an inverted microscope to check for health and cell density. To dissociate adherent cells, the monolayer of cells was washed once with pre-warmed PBS. After removing the PBS, 3 ml pre-warmed Accutase® was added to a F75 flask, dispersed evenly and the flask was allowed to sit in incubator for ˜4-5 minutes.
When a single cell suspension was obtained, 7 ml of prewarmed growth media was added and resuspended with the cells. The cell suspension was transferred to a sterile 15 ml conical centrifuge tube, and spun for 5 min at 300×g, RT. The supernatant was discarded and the pellet was resuspended in 10 ml of pre-warmed growth media.
The total cell count was determined, and 20 μl of the desired cell number was added to each well of a 384 well plate using a Multidrop Combi. The plates were then incubated for 24 hours at 37° C., 95% rH, and 5% CO2.
Compound treatment: 24 hours after seeding, the cells were treated with compounds.
A 1:333 dilution of compounds, diluted in DMSO, was made to get a final concentration of 0.3% DMSO per well. To transfer the compounds to the assay plate, 120 nl was shot from Labcyte low dead volume plates to the cell plates containing 20 μl media/well with the ECHO 555 liquid handling system. After treatment, the cells were fed with 20 μl fresh pre-warmed assay media using a Multidrop combi.
The assay plates were then incubated for another 24 h at 37° C., 95% rH, and 5% CO2.
Luciferase readout: 24 h after treatment, the plates were taken out of the incubator and were allowed to equilibrate to RT. 30 μl of NanoGlo® reagent was added to the plates in the dark. Plates were shaken for 20 min on a Teleshake (˜1500 rpm) in the dark. The luminescence was then measured using an EnVision microplate reader. The IC50 values were generated using Genedata Screener®.

[1] = number, or n.d. (x) = not detectable below threshold x

Row | Structure (SMILES) | IC50 (group symbols) [nM] | IC50 [1] [nM]
1 | Cn1cc2c3cc(C(=O)O)sc3n(-c3ccc(OC(F)F)cn3)c2n1 [Compound 127, 7-[5-(difluoromethoxy)pyridin-2-yl]-4-methyl-9-thia-4,5,7-triazatricyclo[6.3.0.0^2,6]undeca-1(8),2,5,10-tetraene-10-carboxylic acid] | 10 to 100 | 
2 | Cn1cc2c3cc(C(=O)NC[C@@H](O)CO)sc3n(-c3ccc(C(F)(F)F)cc3)c2n1 (single isomer, unassigned) [Compound 128] |  | > 30000
3 | Cn1ccc([C@H](CO)NC(=O)c2cc3c4cn(C)nc4n(-c4ccc(C(F)(F)F)cc4)c3s2)n1 (single isomer, unassigned) [Compound 131] |  | > 95
4 | CNC(=O)c1cc2c3cn(C)nc3n(-c3ccc(C(F)(F)F)nc3)c2s1 [Compound 87, N,4-dimethyl-7-[6-(trifluoromethyl)pyridin-3-yl]-9-thia-4,5,7-triazatricyclo[6.3.0.0^2,6]undeca-1(8),2,5,10-tetraene-10-carboxamide] |  | > 30000
5 | Cn1cc2c3sc(C(=O)N[C@@H](CO)c4ccccn4)cc3n(-c3ccc(C(F)(F)F)cc3)c2n1 [Compound 14, N-[(1R)-2-hydroxy-1-(pyridin-2-yl)ethyl]-10-methyl-7-[4-(trifluoromethyl)phenyl]-3-thia-7,9,10-triazatricyclo[6.3.0.0^2,6]undeca-1(11),2(6),4,8-tetraene-4-carboxamide] | > 10000 | 
6 | COCC(CO)NC(=O)c1cc2c3cn(C)nc3n(-c3ccc(C(F)(F)F)cc3)c2s1 (stereo not shown) [Compound 111, N-(1-hydroxy-3-methoxypropan-2-yl)-4-methyl-7-[4-(trifluoromethyl)phenyl]-9-thia-4,5,7-triazatricyclo[6.3.0.0^2,6]undeca-1(8),2,5,10-tetraene-10-carboxamide] | 100 to 10000 | 
7 | Cn1cc2c3cc(C(=O)O)sc3n(-c3ccc(C(F)(F)F)nc3)c2n1 [Compound 81, 4-methyl-7-[6-(trifluoromethyl)pyridin-3-yl]-9-thia-4,5,7-triazatricyclo[6.3.0.0^2,6]undeca-1(8),2,5,10-tetraene-10-carboxylic acid] | 10 to 100 | 
8 | Cn1cc2c3cc(C(=O)NC(CO)CO)sc3n(-c3ccc(C(F)(F)F)cc3)c2n1 [Compound 112, N-(1,3-dihydroxypropan-2-yl)-4-methyl-7-[4-(trifluoromethyl)phenyl]-9-thia-4,5,7-triazatricyclo[6.3.0.0^2,6]undeca-1(8),2,5,10-tetraene-10-carboxamide] |  | > 9500
9 | CNC(=O)c1cc2c(s1)c1cn(C)nc1n2C[C@H]1C[C@@H](C(F)(F)F)C1 [Compound 39, N,10-dimethyl-7-{[(1s,3s)-3-(trifluoromethyl)cyclobutyl]methyl}-3-thia-7,9,10-triazatricyclo[6.3.0.0^2,6]undeca-1(11),2(6),4,8-tetraene-4-carboxamide] | 100 to 10000 | 
10 | CC[C@H](CO)NC(=O)c1cc2c3cn(C)nc3n(-c3ccc(C(F)(F)F)cn3)c2s1 [Compound 114, N-[(2R)-1-hydroxybutan-2-yl]-4-methyl-7-[5-(trifluoromethyl)pyridin-2-yl]-9-thia-4,5,7-triazatricyclo[6.3.0.0^2,6]undeca-1(8),2,5,10-tetraene-10-carboxamide] |  | > 3000
11 | Cn1cc2c3cc(C(=O)N[C@@H](CO)c4ccccn4)sc3n(-c3ccc(C(F)F)cc3)c2n1 [Compound 101, 7-[4-(difluoromethyl)phenyl]-N-[(1R)-2-hydroxy-1-(pyridin-2-yl)ethyl]-4-methyl-9-thia-4,5,7-triazatricyclo[6.3.0.0^2,6]undeca-1(8),2,5,10-tetraene-10-carboxamide] | 100 to 10000 | 
12 | C[C@H](CO)NC(=O)c1cc2c3cn(C)nc3n(-c3ccc(C(F)F)cn3)c2s1 [Compound 132, 7-[5-(difluoromethyl)pyridin-2-yl]-N-[(2R)-1-hydroxypropan-2-yl]-4-methyl-9-thia-4,5,7-triazatricyclo[6.3.0.0^2,6]undeca-1(8),2,5,10-tetraene-10-carboxamide] |  | > 300
13 | CC[C@@H](O)CNC(=O)c1cc2c3cn(C)nc3n(-c3ccc(C(F)(F)F)cc3)c2s1 [Compound 82, N-[(2R)-2-hydroxybutyl]-4-methyl-7-[4-(trifluoromethyl)phenyl]-9-thia-4,5,7-triazatricyclo[6.3.0.0^2,6]undeca-1(8),2,5,10-tetraene-10-carboxamide] | 100 to 10000 | 
14 | Cn1cc2c3cc(C(=O)NCC(O)CO)sc3n(-c3ccc(C(F)(F)F)cn3)c2n1 (stereo not shown) [Compound 115, N-(2,3-dihydroxypropyl)-4-methyl-7-[5-(trifluoromethyl)pyridin-2-yl]-9-thia-4,5,7-triazatricyclo[6.3.0.0^2,6]undeca-1(8),2,5,10-tetraene-10-carboxamide] |  | > 300
15 | Cn1nc2c3sc(C(N)=O)cc3n(-c3ccc(C(F)(F)F)cc3)c2n1 [Compound 28, 4-methyl-7-[4-(trifluoromethyl)phenyl]-11-thia-3,4,5,7-tetraazatricyclo[6.3.0.0^2,6]undeca-1(8),2,5,9-tetraene-10-carboxamide] | > 10000 | 
16 | Cn1cc2c3sc(C(=O)O)cc3n(CCC(C)(C)C(F)(F)F)c2n1 [Compound 24, 10-methyl-7-(4,4,4-trifluoro-3,3-dimethylbutyl)-3-thia-7,9,10-triazatricyclo[6.3.0.0^2,6]undeca-1(11),2(6),4,8-tetraene-4-carboxylic acid] | 100 to 10000 | 
17 | CNC(=O)c1cc2c3cn(C)nc3n(-c3ccc(SC(F)(F)F)cc3)c2s1 [Compound 85, N,4-dimethyl-7-{4-[(trifluoromethyl)sulfanyl]phenyl}-9-thia-4,5,7-triazatricyclo[6.3.0.0^2,6]undeca-1(8),2,5,10-tetraene-10-carboxamide] | 10 to 100 | 
18 | Cn1cc2c3cc(C(=O)NC(CO)C4CCC4)sc3n(-c3ccc(C(F)(F)F)cc3)c2n1 (racemic) [Compound 57, N-(1-cyclobutyl-2-hydroxyethyl)-4-methyl-7-[4-(trifluoromethyl)phenyl]-9-thia-4,5,7-triazatricyclo[6.3.0.0^2,6]undeca-1(8),2,5,10-tetraene-10-carboxamide] |  | > 9500
19 | CC[C@H](O)CNC(=O)c1cc2c3cn(C)nc3n(-c3ccc(C(F)(F)F)cc3)c2s1 [Compound 83, N-[(2S)-2-hydroxybutyl]-4-methyl-7-[4-(trifluoromethyl)phenyl]-9-thia-4,5,7-triazatricyclo[6.3.0.0^2,6]undeca-1(8),2,5,10-tetraene-10-carboxamide] | 100 to 10000 | 
20 | Cn1nc2c3sc(C(=O)NCCO)cc3n(-c3ccc(C(F)(F)F)cc3)c2n1 [Compound 7, N-(2-hydroxyethyl)-4-methyl-7-[4-(trifluoromethyl)phenyl]-11-thia-3,4,5,7-tetraazatricyclo[6.3.0.0^2,6]undeca-1(8),2,5,9-tetraene-10-carboxamide] | > 10000 | 
21 | CNC(=O)c1cc2c(s1)c1nn(C)nc1n2-c1ccc(OC(F)(F)F)cc1 [Compound 29, N,4-dimethyl-7-[4-(trifluoromethoxy)phenyl]-11-thia-3,4,5,7-tetraazatricyclo[6.3.0.0^2,6]undeca-1(8),2,5,9-tetraene-10-carboxamide] | > 10000 | 
22 | Cn1nc2c3sc(C(N)=O)cc3n(-c3ccc(OC(F)(F)F)cc3)c2n1 [Compound 38, 4-methyl-7-[4-(trifluoromethoxy)phenyl]-11-thia-3,4,5,7-tetraazatricyclo[6.3.0.0^2,6]undeca-1(8),2,5,9-tetraene-10-carboxamide] | 100 to 10000 | 
